14 compounds from patent publication US8481586B2, “Pyrrolo[2,3-a] carbazoles and use thereof as PIM kinase inhibitors” (Centre National de la Recherche Scientifique, priority 2008, dated 2013) can be followed below.

The target in one series is PIM-2 (Homo sapiens (Human), UniProt Q9P1W9). Kind of series: inhibition test on kinase PIM-2 (residual activity, IC50). The series is classed as biochemical. Particulars: product at 10 μmol/L, Table 2, N.I. = not inhibitory; for remaining activity at 10 µM: read-out: Percentage of residual activity PIM-2. From the text:
(§1) MKK1, ERK 1, ERK 2, JNK1, JNK2, JNK3, p38a MAPK, p38b MAPK, p38g MAPK, p38s MAPK, ERK8, RSK1, RSK2, PDK1, PKBa, PKBb, SGK1, S6K1, PKA, ROCK2, PRK2, PKCa, PKC zeta, PKD1, MSK1, MNK1, MNK2, MAPKAP-K2, MAPKAP-K3, PRAK, CAMKKa, CAMKKb, CAMK1, SmMLCK, PHK, CHK1, CHK2, GSK3b, CDK2/cyclin A, PLK1, PLK1 (Okadaic acid), Aurora B, Aurora C, AMPK, MARK3, BRSK2, MELK, CK1, CK2, NEK2a, NEK6, NEK7, IKKb, PIM-1, PIM-2, PIM-3, SRPK1, MST2, EF2K, HIPK2, HIPK3, PAK-4, PAK5, PAK6, Src, Lck, CSK.
(§2) The results in terms of residual activity of the kinases after being placed in contact with the compounds of Examples 2, 3 and 5, at a concentration of 10 μM (10 μmol/L), are shown in Table 1 below.
(§3) The higher the residual activity of the kinase tested, the lower the inhibitory activity of the test compounds on the tested kinase.
(§4) The compounds according to the invention were then tested on the kinases PIM-1, PIM-2 and PIM-3.
(§5) The results in terms of percentage of residual activity after placing the compounds according to the invention in contact with each of the kinases PIM-1, PIM-2 and PIM-3 are given in Table 2 below.
(§6) The higher the residual activity, the lower the inhibitory activity of the test compounds.
(§7) The mean inhibitory concentrations (IC50) of certain preferred compounds of the invention were determined in the following manner: the IC50 values were measured after performing the inhibition tests on the kinases PIM-1, PIM-2 and PIM-3 at ten different concentrations for each test compound, and the IC50 value was determined from the dose-inhibition curves obtained.

A further series addresses PIM-1 (Homo sapiens (Human), UniProt P11309). Kind of series: inhibition test on kinase PIM-1 (residual activity, IC50). The series is classed as biochemical. Conditions: for remaining activity at 10 µM: read-out: Percentage of residual activity PIM-1.
Source text: as §1, §2, §3, §4, §5, §6, §7

The target of the next series is PIM-3 (Homo sapiens (Human), UniProt Q86V86). Kind of series: inhibition test on kinase PIM-3 (residual activity, IC50). The series is classed as biochemical. Conditions: for remaining activity at 10 µM: product at 10 μmol/L, Table 2, N.I. = not inhibitory, read-out: Percentage of residual activity PIM-3.
Source text: as §1, §2, §3, §4, §5, §6, §7

Where [1] appears, read: product at 10 μmol/L, Table 2, N.I. = not inhibitory.
Where [2] appears, read: ten concentrations, dose-inhibition curve.

Chain of PIM-2 (Q9P1W9 whole entry, species assumed): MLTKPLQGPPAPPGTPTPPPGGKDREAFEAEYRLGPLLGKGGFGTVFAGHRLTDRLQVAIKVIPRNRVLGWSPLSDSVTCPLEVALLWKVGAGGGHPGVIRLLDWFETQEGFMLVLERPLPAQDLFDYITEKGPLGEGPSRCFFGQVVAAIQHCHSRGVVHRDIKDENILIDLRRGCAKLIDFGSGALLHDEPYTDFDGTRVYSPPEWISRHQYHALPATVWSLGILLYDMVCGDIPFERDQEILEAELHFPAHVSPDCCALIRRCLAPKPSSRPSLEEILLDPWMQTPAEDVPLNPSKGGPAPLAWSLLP
Chain of PIM-1 (P11309 whole entry, species assumed): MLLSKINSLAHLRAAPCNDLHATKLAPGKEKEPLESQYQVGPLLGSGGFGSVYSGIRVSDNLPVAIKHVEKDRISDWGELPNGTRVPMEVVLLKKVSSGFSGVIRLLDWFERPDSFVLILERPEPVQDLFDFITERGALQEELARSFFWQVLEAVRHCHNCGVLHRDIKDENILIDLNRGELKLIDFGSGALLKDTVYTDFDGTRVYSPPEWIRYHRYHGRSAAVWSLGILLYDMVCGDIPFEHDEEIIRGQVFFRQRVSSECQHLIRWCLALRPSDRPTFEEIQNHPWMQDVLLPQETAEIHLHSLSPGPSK

On to `O=Cc1c[nH]c2c1ccc1c3cc(-c4ccc(F)cc4)ccc3[nH]c12` [Example 39, 7-(4-fluorophenyl)-1,10-dihydropyrrolo[2,3-a]carbazole-3-carbaldehyde], for which the remaining activity at 10 µM on PIM-2 was found to be 55%; at PIM-1 (setting [1]) it was 15%; on PIM-3, 15%.

In the case of `O=Cc1c[nH]c2c1ccc1c3cc(-c4ccc(F)cc4F)ccc3[nH]c12` [Example 40, 7-(2,4-difluorophenyl)-1,10-dihydropyrrolo[2,3-a]-carbazole-3-carbaldehyde], the remaining activity at 10 µM is 32% at PIM-2, 6% at PIM-1 (setting [1]) and 6% on PIM-3. The IC50 amounted to 660 nM at PIM-1 (setting [2]) and 200 nM against PIM-3 (setting [2]).

On to `O=Cc1c[nH]c2c1ccc1c3cc(-c4ccc(C(F)(F)F)cc4)ccc3[nH]c12` [Example 41, 7-(4-trifluoromethylphenyl)-1,10-dihydropyrrolo-[2,3-a]carbazole-3-carbaldehyde], for which the values for the remaining activity at 10 µM at PIM-2, at PIM-1 (setting [1]) and on PIM-3 were 52%, 28% and 23%, respectively.

Take `O=Cc1c[nH]c2c1ccc1c3cc(-c4ccc(OC(F)(F)F)cc4)ccc3[nH]c12` [Example 42, 7-(4-trifluoromethoxyphenyl)-1,10-dihydropyrrolo[2,3-a]carbazole-3-carbaldehyde]: the figures for the remaining activity at 10 µM at PIM-2, on PIM-1 (setting [1]) and at PIM-3 were 70%, 29% and 31%, respectively.

In turn, `O=Cc1c[nH]c2c1ccc1c3ccc(Br)cc3[nH]c12` [Example 43, 8-bromo-1,10-dihydropyrrolo[2,3-a]carbazole-3-carbaldehyde] showed a melting point of over 250 °C. The remaining activity at 10 µM on PIM-2 stood at 39%. At PIM-1 (setting [1]), the remaining activity at 10 µM came to 44%. In addition, the remaining activity at 10 µM at PIM-3 was determined as 15%.

In the case of `O=Cc1c[nH]c2c1ccc1c2[nH]c2cccc(Br)c21` [Example 44, 6-bromo-1,10-dihydropyrrolo[2,3-a]carbazole-3-carbaldehyde], the remaining activity at 10 µM on PIM-2 stood at 6%; at PIM-1 (setting [1]) it was 2%; on PIM-3, 5%.

As for `O=Cc1c[nH]c2c1ccc1c3cccc(Br)c3[nH]c12` [Example 45, 9-bromo-1,10-dihydropyrrolo[2,3-a]carbazole-3-carbaldehyde], the remaining activity at 10 µM on PIM-2 amounted to 28%; on PIM-1 (setting [1]) it was 3%; on PIM-3, 9%.

In the case of `O=Cc1c[nH]c2c1ccc1c3cc(F)ccc3[nH]c12` [Example 46, 7-Fluoro-1,10-dihydropyrrolo[2,3-a]carbazole-3-carbaldehyde], the remaining activity at 10 µM at PIM-2 came out at 21%; at PIM-1 (setting [1]), 4%; at PIM-3 it was 5%.

Turning to `O=Cc1c[nH]c2c1ccc1c3cccc(F)c3[nH]c12` [Example 47, 9-Fluoro-1,10-dihydropyrrolo[2,3-a]carbazole-3-carbaldehyde], the remaining activity at 10 µM worked out at 11% on PIM-2, 5% on PIM-1 (setting [1]) and 3% on PIM-3.

On to `O=Cc1c[nH]c2c1ccc1c2[nH]c2cc(Cl)cc(Cl)c21` [Example 48, 6,8-dichloro-1,10-dihydropyrrolo[2,3-a]carbazole-3-carbaldehyde], for which the values for the remaining activity at 10 µM on PIM-2, at PIM-1 (setting [1]) and on PIM-3 were 34%, 8% and 6%, respectively.

On to `N#Cc1ccc2[nH]c3c(ccc4c(C=O)c[nH]c43)c2c1` [Example 49, 3-formyl-1,10-dihydropyrrolo[2,3-a]carbazole-7-carbonitrile], for which the “Percentage of residual activity PIM-2” value on PIM-2 was “N.I”. Also, the remaining activity at 10 µM at PIM-1 (setting [1]) worked out at 92%; on PIM-3, 14%.

`O=Cc1c[nH]c2c1ccc1c3cc([N+](=O)[O-])ccc3[nH]c12` [Example 50, 7-nitro-1,10-dihydropyrrolo[2,3-a]carbazole-3-carbaldehyde]: the “Percentage of residual activity PIM-2” value on PIM-2 was “N.I”. Moreover, the “Percentage of residual activity PIM-1” value at PIM-1 (setting [1]) is “N.I”. Moreover, the remaining activity at 10 µM at PIM-3 was 35%.

As to `CCc1cccc2c1[nH]c1c2ccc2c(C=O)c[nH]c21` [Example 51, 9-ethyl-1,10-dihydropyrrolo[2,3-a]carbazole-3-carbaldehyde], the remaining activity at 10 µM on PIM-2 was found to be 14%; at PIM-1 (setting [1]) it was 1%; at PIM-3 it was 10%.

As to `Cc1ccc2c(c1)[nH]c1c2ccc2c(C=O)c[nH]c21` [Example 52, 8-methyl-1,10-dihydropyrrolo[2,3-a]carbazole-3-carbaldehyde], the remaining activity at 10 µM on PIM-2 stood at 39%; on PIM-1 (setting [1]), 15%; at PIM-3 it was 8%.

In general, IC50 refers to the concentration at which inhibition is half-maximal. The melting point is the temperature of the solid-liquid transition.
